Test results: ChEMBL document CHEMBL1145891, “Design and synthesis of trans-3-(2-(4-((3-(3-(5-methyl-1,2,4-oxadiazolyl))- phenyl)carboxamido)cyclohexyl)ethyl)-7-methylsulfonyl-2,3,4,5-tetrahydro-1H-3-benzazepine (SB-414796): a potent and selective dopamine D3 receptor antagonist” (J Med Chem, 2003)

Legend:
[1] = biological target: D(3) dopamine receptor (Homo sapiens, UniProt P35462); assay: Binding affinity against human Dopamine receptor D3 expressed in CHO cells by using [125I]iodosulpiride as radioligand; format: cell-based
[2] = biological target: D(2) dopamine receptor (Homo sapiens, UniProt P14416); assay: Binding affinity against human Dopamine receptor D2 expressed in CHO cells by using [125I]iodosulpiride as radioligand; format: cell-based
Sequence of D(2) dopamine receptor (P14416 whole entry): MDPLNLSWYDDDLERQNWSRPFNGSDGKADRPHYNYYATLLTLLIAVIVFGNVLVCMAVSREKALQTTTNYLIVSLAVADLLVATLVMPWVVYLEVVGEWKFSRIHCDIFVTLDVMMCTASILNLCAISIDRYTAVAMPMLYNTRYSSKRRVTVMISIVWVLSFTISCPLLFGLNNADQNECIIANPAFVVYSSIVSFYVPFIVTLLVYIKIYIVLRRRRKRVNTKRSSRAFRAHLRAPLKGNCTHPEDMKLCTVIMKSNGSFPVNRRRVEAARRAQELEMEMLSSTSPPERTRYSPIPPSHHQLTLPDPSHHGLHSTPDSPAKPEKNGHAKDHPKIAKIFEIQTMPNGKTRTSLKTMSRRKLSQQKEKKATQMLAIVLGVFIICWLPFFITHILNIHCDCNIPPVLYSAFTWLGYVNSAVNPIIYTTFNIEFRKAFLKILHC

Sequence of D(3) dopamine receptor (P35462 whole entry): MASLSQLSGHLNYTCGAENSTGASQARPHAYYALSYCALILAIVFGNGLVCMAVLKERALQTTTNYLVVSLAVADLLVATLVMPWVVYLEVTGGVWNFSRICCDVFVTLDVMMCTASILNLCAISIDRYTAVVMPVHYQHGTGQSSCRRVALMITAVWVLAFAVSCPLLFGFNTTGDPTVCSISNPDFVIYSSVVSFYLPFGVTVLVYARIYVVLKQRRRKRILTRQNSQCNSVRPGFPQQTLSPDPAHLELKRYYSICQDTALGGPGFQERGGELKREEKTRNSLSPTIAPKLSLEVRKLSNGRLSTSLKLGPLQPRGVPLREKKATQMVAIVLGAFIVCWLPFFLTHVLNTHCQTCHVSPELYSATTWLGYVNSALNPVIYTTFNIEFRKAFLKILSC

SMILES	Ki [1]	Ki [2]
Cc1cnc(-c2cccc(C(=O)N[C@H]3CC[C@H](CCN4CCc5ccc(S(C)(=O)=O)cc5CC4)CC3)c2)o1	7.94 nM	631 nM
CS(=O)(=O)c1ccc2c(c1)CCN(CC[C@H]1CC[C@H](NC(=O)/C=C/c3c(F)cccc3F)CC1)CC2	2.51 nM	398 nM
Cc1nc(-c2cccc(C(=O)N[C@H]3CC[C@H](CCN4CCc5ccc(OS(C)(=O)=O)cc5CC4)CC3)c2)no1	2.51 nM	200 nM
Cc1ccc2c(C(=O)N[C@H]3CC[C@H](CCN4CCc5ccc(S(C)(=O)=O)cc5CC4)CC3)cccc2n1	3.98 nM	316 nM
Cc1ncc(-c2cccc(C(=O)N[C@H]3CC[C@H](CCN4CCc5ccc(S(C)(=O)=O)cc5CC4)CC3)c2)o1	6.31 nM	631 nM
Cc1cc(-c2cccc(C(=O)N[C@H]3CC[C@H](CCN4CCc5ccc(S(C)(=O)=O)cc5CC4)CC3)c2)on1	3.98 nM	501 nM
Cc1cc(C(=O)N[C@H]2CC[C@H](CCN3CCc4ccc(OS(C)(=O)=O)cc4CC3)CC2)c2ccccc2n1	20 nM	631 nM
CS(=O)(=O)c1ccc2c(c1)CCN(CC[C@H]1CC[C@H](NC(=O)/C=C/c3ccc(C#N)cc3)CC1)CC2	2 nM	126 nM
Cn1nccc1-c1cccc(C(=O)N[C@H]2CC[C@H](CCN3CCc4ccc(S(C)(=O)=O)cc4CC3)CC2)c1	3.16 nM	501 nM
CS(=O)(=O)Oc1ccc2c(c1)CCN(CC[C@H]1CC[C@H](NC(=O)c3cccc4ncccc34)CC1)CC2	2 nM	200 nM
COc1cccc(/C=C/C(=O)N[C@H]2CC[C@H](CCN3CCc4ccc(OS(C)(=O)=O)cc4CC3)CC2)c1	2 nM	63.1 nM
Cc1cnc(-c2cccc(C(=O)N[C@H]3CC[C@H](CCN4CCc5ccc(OS(C)(=O)=O)cc5CC4)CC3)c2)o1	3.16 nM	316 nM
Cc1coc(-c2cccc(C(=O)N[C@H]3CC[C@H](CCN4CCc5ccc(OS(C)(=O)=O)cc5CC4)CC3)c2)n1	3.16 nM	200 nM
CS(=O)(=O)c1ccc2c(c1)CCN(CC[C@H]1CC[C@H](NC(=O)/C=C/c3cccc(C#N)c3)CC1)CC2	2 nM	158 nM
CS(=O)(=O)Oc1ccc2c(c1)CCN(CC[C@H]1CC[C@H](NC(=O)c3cccc4ccccc34)CC1)CC2	2.51 nM	316 nM
Cc1ccc2c(C(=O)N[C@H]3CC[C@H](CCN4CCc5ccc(S(C)(=O)=O)cc5CC4)CC3)ccc(F)c2n1	3.16 nM	794 nM
CS(=O)(=O)Oc1ccc2c(c1)CCN(CC[C@H]1CC[C@H](NC(=O)c3cccc(-n4cccc4)c3)CC1)CC2	3.16 nM	251 nM
CS(=O)(=O)c1ccc2c(c1)CCN(CC[C@H]1CC[C@H](NC(=O)/C=C/c3cc(F)cc(F)c3)CC1)CC2	2 nM	251 nM

The remaining lines, values ahead:

Ki [1]	Ki [2]	SMILES
0.794 nM	63.1 nM	CS(=O)(=O)Oc1ccc2c(c1)CCN(CC[C@H]1CC[C@H](NC(=O)/C=C/c3ccc(F)cc3)CC1)CC2
2 nM	316 nM	CS(=O)(=O)Oc1ccc2c(c1)CCN(CC[C@H]1CC[C@H](NC(=O)c3cccc(-c4ncccn4)c3)CC1)CC2
2 nM	158 nM	Cc1cc(-c2cccc(C(=O)N[C@H]3CC[C@H](CCN4CCc5ccc(OS(C)(=O)=O)cc5CC4)CC3)c2)on1
1.58 nM	158 nM	CS(=O)(=O)c1ccc2c(c1)CCN(CC[C@H]1CC[C@H](NC(=O)/C=C/c3ccccc3C#N)CC1)CC2
1.58 nM	126 nM	CS(=O)(=O)c1ccc2c(c1)CCN(CC[C@H]1CC[C@H](NC(=O)/C=C/c3cccc(F)c3)CC1)CC2
1 nM	31.6 nM	COc1ccc(/C=C/C(=O)N[C@H]2CC[C@H](CCN3CCc4ccc(OS(C)(=O)=O)cc4CC3)CC2)cc1
1.26 nM	100 nM	COc1ccccc1/C=C/C(=O)N[C@H]1CC[C@H](CCN2CCc3ccc(OS(C)(=O)=O)cc3CC2)CC1
1.26 nM		CS(=O)(=O)Oc1ccc2c(c1)CCN(CC[C@H]1CC[C@H](NC(=O)/C=C/c3cccc(F)c3)CC1)CC2
1.26 nM	126 nM	CS(=O)(=O)c1ccc2c(c1)CCN(CC[C@H]1CC[C@H](NC(=O)/C=C/c3ccccc3F)CC1)CC2
1 nM	79.4 nM	CS(=O)(=O)c1ccc2c(c1)CCN(CC[C@H]1CC[C@H](NC(=O)/C=C/c3ccc(F)cc3)CC1)CC2
1.26 nM		CS(=O)(=O)Oc1ccc2c(c1)CCN(CC[C@H]1CC[C@H](NC(=O)/C=C/c3ccccc3F)CC1)CC2
1.26 nM	200 nM	Cc1ccc2c(C(=O)N[C@H]3CC[C@H](CCN4CCc5ccc(OS(C)(=O)=O)cc5CC4)CC3)cccc2n1
1.26 nM	200 nM	Cc1ncc(-c2cccc(C(=O)N[C@H]3CC[C@H](CCN4CCc5ccc(OS(C)(=O)=O)cc5CC4)CC3)c2)o1
